SMILES strings stand for the structures.

A short description of one series: Rat hepatocyte half life. The format is in vitro ADME, Sprague-Dawley rats. The settings on record: pooled cryopreserved rat hepatocytes, pH 7.4; pooled male Sprague-Dawley rat hepatocytes; read-out: Rat Hepatocyte t ½. As to the method: Example Compound 1 was tested for metabolic stability in rat metabolic assays using hepatocytes derived from pooled male Sprague-Dawley rats. Comparative Examples 2, 3 and 4 were also tested in the same assay. Compounds having good metabolic stability in the assay are expected to be especially useful as agents for preventing and/or treating cancer, by having a long half-life in human patients.
Frozen pooled rat hepatocytes obtained from LifeTechnologies were thawed and purified according to the manufacturer's instructions. The test compound (4 mM) in DMSO was diluted with acetonitrile to provide a 100 μM sub-stock then further diluted with pH7.4 Krebs-Henseleit buffer supplemented with CaCl2), NaHCO3, HEPES, fructose and glycine) to provide a 2 μM working solution. 25 μL of working solution was incubated at 37° C., treated with 25 μL of rat hepatocyte suspension (containing 1×10^6 cells/mL) and incubated at 37° C. with 5% CO2 level at 95% relative humidity. Wells were incubated for an appropriate time (0, 15, 30, 45, 60 and 75 min) then quenched with 250 μL of acetonitrile containing reference standards diltiazem, 7-ethoxycoumarin and propranolol). The plates were shaken, sonicated for 5 min then cooled to 4° C. until all sampling was complete. All plates were centrifuged at 4000 rpm for 20 min to pellet the debris. 110 μl supernatant was diluted 110 μL water and quantitated using LC-MS/MS.
The results were used to calculate the % Remaining of the test compound at time point t=100×˜[(AUC at time point t)/(AUC at T=0)]. A linear regression curve was fitted to a plot of natural logarithm (In) of AUC against time. The T-half (min)=0.693/slope

The nature of a further series: Rat half life in vivo. The settings on record: plasma; rat oral half-life; male Sprague-Dawley rats, 3 mg/kg oral gavage; read-out: Rat or mouse t ½ (rat) (converted). The method, then: Example Compound 1, and Comparative Examples 2 and 3 were tested for metabolic stability in male Sprague-Dawley rats. Comparative Example 5 was tested for metabolic stability in male CD-1 mice. Compounds having good metabolic stability in rats or mice are expected to be especially useful as agents for preventing and/or treating cancer, by having a long half-life in human patients.
Male Sprague-Dawley rats were fasted for 4 h before dosing. Groups of 3 rats were dosed with Example Compound 1, Comparative Example 2, or Comparative Example 3 • (i) intravenously at a dose of 1 mg/kg using a dose volume 2 mL/kg where the animals are anaesthetized using 3% v/v isoflurane:oxygen mixture and dose administered through lateral tail vein; or • (ii) orally by gavage (OG) at a dose of 3 mg/kg using a dose volume 5 ml/kg to conscious animals.
˜100 μL blood sample were collected after 5 min, 15 min, 30 min, 1 h, 2 h, 4 h, 8 h and 24 h (intravenous) and 15 min, 30 min, 1 h, 2 h, 4 h, 8 h and 24 h (oral) and transferred to heparinized capillary tubes, and subsequently into 0.5 mL microcentrifuge tubes. All blood samples are processed for plasma by centrifugation at 1640×g for 5 min at 4° C. within half an hour of collection. Plasma samples were stored at −20° C. until all samples were collected. All samples were mixed with ice-cold acetonitrile containing an internal standard (IS) in 1:4 v/v and centrifuged at 4000 rpm for 15 min at 15° C. Supernatant was then half diluted in water and loaded for LCMS/MS analysis. Analyte peak area/IS peak area (the ratio) was considered for further data analysis as described below.
Calibration curve and QC samples: Compound stock was prepared and further serial dilutions were carried out. The samples were spiked in blank plasma (1:50). Calibration curve ranged from 1 to 1250 ppb. Three quality control samples were also prepared-high QC (HQC), Mid QC (MQC and Low QC (LQC).

A short description of series [1]: Human liver microsomes half life. The settings on record: pH 7.4, read-out: Human liver microsomes t ½. The format is in vitro ADME. As to the method: Example Compound 1 was tested for metabolic stability in an assay using human liver microsomes. Comparative Examples 2, 3, 4, 5 and 6 were also tested in the same assay. Compounds having good metabolic stability in the assay are expected to be especially useful as agents for preventing and/or treating cancer, by having a long half-life in human patients
Frozen human liver microsomes obtained from Corning, USA (cat #452117) were thawed and diluted with 100 mM of pH 7.4 phosphate buffer to give a 1 mg/ml solution. An NADPH regeneration system (NRS) was prepared as a solution containing 13 mM NADP, 33 mM glucose-6-phosphate, 33 mM MgCl2 and 4U/mL glucose-6-phosphate dehydrogenase in 100 mM of pH7.4 phosphate buffer. The test compound (4 mM) in DMSO was diluted with acetonitrile to provide a 100 μM sub-stock then further diluted with 100 mM of pH7.4 phosphate buffer to provide a 2 μM working solution. The liver microsome solution and NRS were incubated at 37° C. before use. To each well of the test plate was dispensed 60 μL of buffer, 50 μL of test compound solution and 10 μL of NRS. A reaction was initiated by addition of 40 μL of liver microsome solution. Wells were incubated for an appropriate time (0, 5, 10, 20, 30 and 60 min) then quenched with 300 μL of acetonitrile containing reference standards atenolol, propranolol, diclofenac, verapamil). All plates were centrifuged at 3500 rpm for 20 min at 15° C. to pellet the debris. 110 μL supernatant was diluted 110 μL water and quantitated using LC-MS/MS.
The results were used to calculate the % Remaining of the test compound at time point t=100×˜[(AUC at time point t)/(AUC at T=0)]. A linear regression curve was fitted to a plot of natural logarithm (In) of AUC against time. The T-half (min)=0.693/slope.
On the technique in general: Liver microsomes are vesicles of endoplasmic reticulum, rich in cytochrome P450 enzymes.

Turning to `CNCCc1cnc2ccc(-c3ccc(F)cc3OCCc3c(C)nn(C)c3C)cn12` [Comparative Example 3, [2-(6-{4-fluoro-2-[2-(1,3,5-trimethyl-1H-pyrazol-4-yl)ethoxy]phenyl}imidazo[1,2-a]pyridin-3-yl)ethyl](methyl)amine], the half-life at 1 µM in the series “Rat hepatocyte half life” came out at 0.767 h. For the same compound, the half-life in the series “Rat half life in vivo” was 4.5 h. In series [1], the half-life at 0.625 µM stood at 0.617 h.
As to `Cc1c(CCOc2cc(Cl)ccc2-c2ccc3ncc(CCN)n3c2)c(C(=O)N(C)C)nn1C` [Example Compound 1, 4-(2-{2-[3-(2-aminoethyl)imidazo[1,2-a]pyridin-6-yl]-5-chlorophenoxy}ethyl)-N,N,1,5-tetramethyl-1H-pyrazole-3-carboxamide], the half-life at 1 µM in the series “Rat hepatocyte half life” worked out at 1.33 h. The half-life in “Rat half life in vivo” was 7.1 h. Moreover, the half-life at 0.625 µM in series [1] came out at 1.12 h.
As to `CNC(=O)c1nn(C)c(C)c1CCOc1cc(F)ccc1-c1ccc2ncc(CCN)n2c1` [Comparative Example 2, 4-(2-{2-[3-(2-aminoethyl)imidazo[1,2-a]pyridin-6-yl]-5-fluorophenoxy}ethyl)-N,1,5-trimethyl-1H-pyrazole-3-carboxamide], the half-life at 1 µM in “Rat hepatocyte half life” was determined as 1.35 h. Further, the half-life in “Rat half life in vivo” is 8.3 h. Further, the half-life at 0.625 µM in series [1] stood at 1.95 h.

For the origin of these results see patent US12304909B2, “Compounds and their use in therapy” (IMPERIAL COLLEGE INNOVATIONS LIMITED, priority 2018, dated 2025).
